# Data taken from patent US5532229A, “Topical administration of vitamin D to mammals” (priority 1994, dated 1996).
# Experiment: Experiment 3: vitamin D-binding capacity of serum (specific uptake of [3H]-25(OH)D3)
# Format: in vivo, rat
# Details: 6 weeks
# Protocol: Male, Wistar rats were obtained at 120-130 g, and placed on a 0.01% calcium, 0.7% phosphate diet that was vitamin D deficient (Teklad Test Diets, Madison, WI) this was for one week to help deplete vitamin D stores. For the next three weeks the rats were fed the vitamin D-deficient diet, but with normal, 0.5%, calcium. Starting with these 3 weeks, the rats were divided into four vitamin D3 -treatment groups, initially, nine rats per group: group a) supplemented once weekly with 0.6 μg vitamin D3 (average dose, 0.08 μg/day); group b) supplemented once every second day with vitamin D3 to provide 2 nmol/day, i.e., each dose was 4 nmol of vitamin D3; group c) supplemented once every second day with vitamin D3 to provide 8 μg/day. The preceding groups all received the vitamin D3 through an infant-feeding tube inserted through the mouth into the stomach. One group, d), received its vitamin D3 in the ethanol applied onto a shaved 2 cm×2 cm patch of skin on the back, this was done every second day to provide vitamin D3 at 8 μg/day. The volume of each dose of vitamin D3 given was adjusted so that the stated doses are per 250 g body weight. Over a second 3-week period while maintaining the described vitamin D3 dosing regimens, diet calcium content was changed weekly and blood sampling was started (that is, changes in calcium and sampling was from weeks 4 to 6, inclusive, of receiving the appropriate vitamin D3 supplement). Diet calcium was first dropped to 0.01% then raised to 1.5% and finally dropped again to 0.01%. For each week of dietary calcium manipulation, blood was obtained at day zero (the day of but just prior to the change in calcium), and days 1, 3, and 7 after the change. During the first week, 0.5 mL of blood was taken on the first two of these days and anticoagulated with heparin, the cells were isolated and resuspended in normal rat plasma and reinjected into the femoral vein. […] For the subsequent samplings, only 0.2-0.3 mL of blood was taken by bleeding from the tail into precalibrated microcentrifuge tubes. […]
# Biochemical measurements. 1,25(OH)2 D3 in serum was measured by calf-thymus receptor-binding assay after initial purification of 1,25(OH)2 D3 with C18-OH cartridges (5). For the serum volumes that were minimal, serum was measured out in 50 μL increments, and the final result was adjusted for the volume of sample analyzed. […] The material eluting as 1,25(OH)2 D3 was evaporated and redissolved in acetonitrile: water for further purification with C18-OH cartridges and quantitation by thymus receptor assay, as described for serum. Renal 24-hydroxylase was measured by incubating mitochondria with [^3 H]-25(OH)D3 as substrate (Vieth and Fraser, J Biol Chem. 254:12455-12460;1979). […]
structure (smiles),measurement,setting,value
C=C1CC[C@H](O)C/C1=C/C=C1\CCC[C@]2(C)[C@@H]([C@H](C)CCCC(C)C)CC[C@@H]12 [vitamin D3],Binding Capacity for 25(OH)D3,0.08 μg/day diet,7.1 µmol/L
same,Binding Capacity for 25(OH)D3,0.8 μg/day G1 (gastric),6.93 µmol/L
same,Binding Capacity for 25(OH)D3,8 μg/day G1 (gastric),7.13 µmol/L
same,Binding Capacity for 25(OH)D3,8 μg/day dermal,7.96 µmol/L
